Tested on: serum uric acid level
Experiment: Serum uric acid level-lowering action
Assay type: in vivo
Conditions: male wister rats, oral 0.3 mg/5 mL/Kg in 0.5% MC, blood collected six hours after administration, vs MC group
Protocol: Serum Uric Acid Level-Lowering Action
To male wister rats of 7 weeks old (4 rats per group) was orally administered compulsorily a test substance suspended in 0.5% aqueous solution of methyl cellulose (MC) in such an amount as to provide 0.3 mg/5 mL/Kg by using a stomach sonde. Six hours after the administration of the test substance, a blood sample was collected from the orbital vein. After allowing to stand at room temperature for 1 hour, the blood sample was centrifuged at 2000×g for 10 minutes to collect serum. […] Lowering rate of serum uric acid level (%)=(1-average serum uric acid level of the group administered with test compound/average serum uric acid level of the group administered with MC)×100

For `Cc1ccc(S(=O)(=O)O)cc1.N#Cc1cc(-c2nc(-c3ccncc3)n[nH]2)ccn1` [Example 2, 5-(2-cyano-4-pyridyl)-3-(4-pyridyl)-1,2,4-triazole p-toluenesulfonate], the “Lowering rate of serum uric acid level” value was 51.1%.

From patent US20060189811A1, “Process for producing 1,2,4-triazole compound and intermediate therefor” (FUJIYAKUHIN CO., LTD., priority 2004, published 2006)
